Assay [1] addresses T1, SpNanB (Streptococcus pneumoniae serotype 4, UniProt Q54727, E68D/K536E/K577E/N393D/S59P). Description: Sialidase inhibition assay (Example 7). The format is biochemical. The note with it: for Percentage inhibition (%) against SpNanB: 1 mM of each inhibitor, substrate Neu5Acα2-3GalβpNP 0.3 mM, pH 6.0; for inhibition at 1000 µM: pH 6, read-out: Percentage inhibition (%) against SpNanB.

For a further assay, the target named is VcSialidase (Vibrio cholerae serotype O1, UniProt P0C6E9). The experiment in a line: Sialidase inhibition assay (Example 7). The format is biochemical. Conditions: for inhibition at 1000 µM: pH 5.5, read-out: Percentage inhibition (%) against VcSialidase.
Sequence of VcSialidase (P0C6E9 25-781): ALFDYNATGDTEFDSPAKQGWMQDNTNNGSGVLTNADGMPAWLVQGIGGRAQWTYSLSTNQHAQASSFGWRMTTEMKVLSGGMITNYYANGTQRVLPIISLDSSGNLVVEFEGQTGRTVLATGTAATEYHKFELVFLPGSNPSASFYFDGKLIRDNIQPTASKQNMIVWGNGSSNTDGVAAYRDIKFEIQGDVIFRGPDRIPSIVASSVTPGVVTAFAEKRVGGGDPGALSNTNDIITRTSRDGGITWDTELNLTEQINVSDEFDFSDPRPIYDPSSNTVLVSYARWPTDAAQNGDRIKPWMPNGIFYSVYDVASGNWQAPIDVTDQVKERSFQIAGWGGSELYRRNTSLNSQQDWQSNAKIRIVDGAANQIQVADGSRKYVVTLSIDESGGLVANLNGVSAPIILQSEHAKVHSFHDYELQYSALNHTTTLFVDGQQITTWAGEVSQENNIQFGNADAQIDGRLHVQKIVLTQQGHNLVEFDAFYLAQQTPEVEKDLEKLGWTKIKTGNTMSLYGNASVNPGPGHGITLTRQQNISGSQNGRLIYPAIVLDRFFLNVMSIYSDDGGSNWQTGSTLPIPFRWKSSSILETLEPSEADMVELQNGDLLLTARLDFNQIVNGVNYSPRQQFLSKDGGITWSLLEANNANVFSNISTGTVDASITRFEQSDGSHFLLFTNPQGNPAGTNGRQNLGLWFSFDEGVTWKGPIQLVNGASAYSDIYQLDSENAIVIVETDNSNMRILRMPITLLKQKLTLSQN
The test system of another assay is CpNanI. The format is biochemical, Clostridium perfringens. Conditions: 1 mM of each inhibitor; substrate Neu5Acα2-3GalβpNP 0.3 mM; pH 5.0.
The target of another assay is T2, AuSialidase (Paenarthrobacter ureafaciens, UniProt Q5W7Q2).
T2 sequence (Q5W7Q2 39-990): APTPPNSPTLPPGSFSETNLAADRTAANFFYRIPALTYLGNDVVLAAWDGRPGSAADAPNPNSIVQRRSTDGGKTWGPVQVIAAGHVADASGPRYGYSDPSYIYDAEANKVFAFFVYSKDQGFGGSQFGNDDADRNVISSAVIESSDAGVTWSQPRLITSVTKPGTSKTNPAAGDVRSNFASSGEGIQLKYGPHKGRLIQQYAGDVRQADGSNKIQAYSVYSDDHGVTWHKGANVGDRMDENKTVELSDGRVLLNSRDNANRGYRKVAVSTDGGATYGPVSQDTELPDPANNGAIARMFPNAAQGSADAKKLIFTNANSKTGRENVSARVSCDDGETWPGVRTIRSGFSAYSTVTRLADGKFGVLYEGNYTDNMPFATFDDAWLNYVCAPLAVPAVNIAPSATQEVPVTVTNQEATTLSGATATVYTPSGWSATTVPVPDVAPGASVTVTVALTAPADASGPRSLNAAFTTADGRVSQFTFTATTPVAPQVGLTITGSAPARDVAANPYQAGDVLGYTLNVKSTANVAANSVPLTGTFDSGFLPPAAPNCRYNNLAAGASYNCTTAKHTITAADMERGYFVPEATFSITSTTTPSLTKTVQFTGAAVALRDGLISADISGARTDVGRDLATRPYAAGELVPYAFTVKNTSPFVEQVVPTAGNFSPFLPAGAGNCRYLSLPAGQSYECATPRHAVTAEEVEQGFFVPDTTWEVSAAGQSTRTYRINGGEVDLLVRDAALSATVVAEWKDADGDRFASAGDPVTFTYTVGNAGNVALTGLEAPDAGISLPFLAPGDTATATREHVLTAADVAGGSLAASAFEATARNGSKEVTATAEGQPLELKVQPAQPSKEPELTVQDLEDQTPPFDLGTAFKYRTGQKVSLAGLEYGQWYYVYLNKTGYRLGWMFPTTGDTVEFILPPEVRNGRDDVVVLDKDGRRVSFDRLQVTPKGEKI
Description: Sialidase inhibition assay (Example 7). The format is biochemical, Arthrobacter ureafaciens. Conditions: for inhibition at 1000 µM: read-out: Percentage inhibition (%) against AuSialidase.

The target of assay [2] is T3, SpNanC (Streptococcus pneumoniae, UniProt A0A0H2UQE4). Description: Sialidase inhibition assay (Example 7). Conditions: for inhibition at 1000 µM: pH 6.5, read-out: Percentage inhibition (%) against SpNanC.
T3 sequence (A0A0H2UQE4 entry or part of it): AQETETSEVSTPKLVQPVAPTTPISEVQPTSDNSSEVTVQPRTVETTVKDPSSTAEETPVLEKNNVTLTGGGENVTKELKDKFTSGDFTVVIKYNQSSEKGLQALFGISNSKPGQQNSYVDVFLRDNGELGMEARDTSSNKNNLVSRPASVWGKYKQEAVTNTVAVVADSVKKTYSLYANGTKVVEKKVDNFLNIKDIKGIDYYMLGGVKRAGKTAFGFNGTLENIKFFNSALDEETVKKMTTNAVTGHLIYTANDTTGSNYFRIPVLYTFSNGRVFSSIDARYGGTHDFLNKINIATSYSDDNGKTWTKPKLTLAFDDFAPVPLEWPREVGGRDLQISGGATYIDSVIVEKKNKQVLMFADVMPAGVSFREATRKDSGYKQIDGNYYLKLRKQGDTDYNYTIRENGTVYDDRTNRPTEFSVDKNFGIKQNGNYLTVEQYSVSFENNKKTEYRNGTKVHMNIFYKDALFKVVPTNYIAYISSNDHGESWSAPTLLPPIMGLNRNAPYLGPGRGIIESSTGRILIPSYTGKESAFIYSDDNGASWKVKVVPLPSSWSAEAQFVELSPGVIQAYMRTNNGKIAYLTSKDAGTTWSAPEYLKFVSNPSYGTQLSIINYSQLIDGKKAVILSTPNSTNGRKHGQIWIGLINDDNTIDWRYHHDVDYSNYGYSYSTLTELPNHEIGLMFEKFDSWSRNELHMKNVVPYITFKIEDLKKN
The target in assay [3] is T4, BiNanH2 (Bifidobacterium longum subsp. infantis, UniProt A0ACD7UU12). The experiment in a line: Sialidase inhibition assay (Example 7). The format is biochemical. The note with it: pH 5, read-out: Percentage inhibition (%) against BiNanH2.
T4 sequence (A0ACD7UU12 entry or part of it): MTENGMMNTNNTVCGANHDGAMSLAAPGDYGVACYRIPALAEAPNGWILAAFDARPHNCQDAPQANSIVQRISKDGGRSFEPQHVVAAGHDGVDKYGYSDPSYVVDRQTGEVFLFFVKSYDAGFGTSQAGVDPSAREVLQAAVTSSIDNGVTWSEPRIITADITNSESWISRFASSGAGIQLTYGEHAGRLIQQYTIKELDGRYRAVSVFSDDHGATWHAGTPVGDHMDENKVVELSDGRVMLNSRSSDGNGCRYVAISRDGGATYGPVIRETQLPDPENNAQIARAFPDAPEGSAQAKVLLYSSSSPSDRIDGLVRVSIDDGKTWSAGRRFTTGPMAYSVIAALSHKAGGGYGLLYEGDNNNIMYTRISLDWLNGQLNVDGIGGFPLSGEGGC
In a further assay the target is hNEU2 (Homo sapiens, UniProt Q9Y3R4). Description: Sialidase inhibition assay (Example 7). The format is biochemical. Conditions: 1 mM of each inhibitor; substrate Neu5Acα2-3GalβpNP 0.3 mM; pH 5.0; read-out: Percentage inhibition (%) against hNEU2.
Sequence of hNEU2 (Q9Y3R4 whole entry): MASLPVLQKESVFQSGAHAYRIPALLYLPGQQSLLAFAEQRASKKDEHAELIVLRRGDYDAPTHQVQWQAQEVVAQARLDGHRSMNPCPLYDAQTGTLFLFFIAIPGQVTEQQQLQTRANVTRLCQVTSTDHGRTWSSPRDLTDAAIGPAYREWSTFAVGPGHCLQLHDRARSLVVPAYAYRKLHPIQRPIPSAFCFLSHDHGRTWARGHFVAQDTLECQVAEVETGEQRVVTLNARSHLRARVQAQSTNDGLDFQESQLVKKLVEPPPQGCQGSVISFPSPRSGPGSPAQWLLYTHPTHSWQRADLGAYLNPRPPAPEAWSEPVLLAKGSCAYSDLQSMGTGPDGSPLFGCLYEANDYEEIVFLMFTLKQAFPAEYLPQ
The target of assay [4] is T5, PmST1 (Pasteurella multocida, UniProt Q15KI8). Description: Sialidase inhibition assay (Example 7). The format is biochemical. Conditions: 1 mM of each inhibitor; substrate Neu5Acα2-3GalβpNP 0.3 mM; CMP 0.4 mM; pH 5.5; read-out: Percentage inhibition (%) against PmST1.
T5 sequence (Q15KI8 entry or part of it): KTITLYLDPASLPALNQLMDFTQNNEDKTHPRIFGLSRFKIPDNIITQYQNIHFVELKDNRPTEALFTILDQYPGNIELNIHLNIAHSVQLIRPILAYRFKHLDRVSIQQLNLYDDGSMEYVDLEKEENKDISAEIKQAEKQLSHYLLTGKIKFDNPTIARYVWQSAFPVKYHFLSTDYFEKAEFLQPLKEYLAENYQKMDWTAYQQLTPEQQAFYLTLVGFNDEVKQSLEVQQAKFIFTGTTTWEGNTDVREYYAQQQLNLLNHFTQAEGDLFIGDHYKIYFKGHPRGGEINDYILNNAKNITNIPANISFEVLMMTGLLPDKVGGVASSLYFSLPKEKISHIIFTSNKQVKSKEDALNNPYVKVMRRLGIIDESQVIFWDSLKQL
For the next assay, the target named is SpNanA (Streptococcus pneumoniae, UniProt P62575). The experiment in a line: Sialidase inhibition assay (Example 7). The format is biochemical. The note with it: for Percentage inhibition (%) against SpNanA: 1 mM of each inhibitor, substrate Neu5Acα2-3GalβpNP 0.3 mM, pH 6.0; for inhibition at 1000 µM: pH 6, read-out: Percentage inhibition (%) against SpNanA.
Sequence of SpNanA (P62575 54-1006): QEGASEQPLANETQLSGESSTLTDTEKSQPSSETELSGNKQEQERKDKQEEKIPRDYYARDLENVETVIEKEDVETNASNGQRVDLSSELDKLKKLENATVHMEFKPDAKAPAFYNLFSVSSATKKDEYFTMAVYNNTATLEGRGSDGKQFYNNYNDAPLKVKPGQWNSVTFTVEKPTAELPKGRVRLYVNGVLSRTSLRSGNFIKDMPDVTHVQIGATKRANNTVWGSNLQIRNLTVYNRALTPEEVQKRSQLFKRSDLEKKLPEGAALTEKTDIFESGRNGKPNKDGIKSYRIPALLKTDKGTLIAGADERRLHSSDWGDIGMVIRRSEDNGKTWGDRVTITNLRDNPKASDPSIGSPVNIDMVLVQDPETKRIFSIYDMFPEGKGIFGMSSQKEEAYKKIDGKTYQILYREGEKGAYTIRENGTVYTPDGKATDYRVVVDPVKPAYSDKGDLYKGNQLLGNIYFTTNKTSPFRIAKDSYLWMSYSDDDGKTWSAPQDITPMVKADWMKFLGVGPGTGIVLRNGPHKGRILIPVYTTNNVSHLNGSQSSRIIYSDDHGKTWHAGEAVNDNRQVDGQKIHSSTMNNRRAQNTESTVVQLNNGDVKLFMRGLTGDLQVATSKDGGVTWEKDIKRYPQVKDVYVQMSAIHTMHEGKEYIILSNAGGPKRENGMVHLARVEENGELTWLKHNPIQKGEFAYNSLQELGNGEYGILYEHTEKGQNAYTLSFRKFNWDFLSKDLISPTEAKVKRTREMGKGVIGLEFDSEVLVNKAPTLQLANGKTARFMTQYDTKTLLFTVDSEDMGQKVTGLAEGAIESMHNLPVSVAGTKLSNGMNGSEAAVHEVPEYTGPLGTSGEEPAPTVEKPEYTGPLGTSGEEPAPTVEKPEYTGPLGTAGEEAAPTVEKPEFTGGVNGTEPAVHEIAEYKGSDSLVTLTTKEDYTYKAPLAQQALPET
Assay [5] deals with SpNanC. The experiment in a line: Substrate specificity assay of SpNanC. The note with it: sialoside substrate 0.3 mM; SpNanC (2 μg); Tris-HCl pH 7.0; 30 min, 37° C.
For assay [6], the target named is T3, SpNanC. The note with it: Tris-HCl pH 7.0, 10 min at 37° C.
In assay [7] the target is T1, SpNanB. Description: Substrate specificity of SpNanB. The note with it: pNP-tagged α2-3-linked sialosides.
In assay [8] the target is T3, SpNanC. The experiment in a line: Sialidase inhibition assay (Example 4). The format is biochemical. The note with it: pH 6.5, read-out: Percentage inhibition (%) against SpNanC.
Assay [9] has as its target T5, PmST1. Description: Sialidase inhibition assay (Example 4). The format is biochemical. Conditions: 0.1 mM of each inhibitor; substrate Neu5Acα2-3GalβpNP 0.3 mM; pH 5.5; read-out: Percentage inhibition (%) against PmST1. The protocol: The assay conditions varied for different sialidases as described below: SpNanA (0.0015 μg), NaOAc buffer (100 mM, pH 6.0); SpNanB (0.003 μg), NaOAc buffer (100 mM, pH 6.0); SpNanC (0.02 μg), MES buffer (100 mM, pH 6.5); AuSialidase (1.0 mU), NaOAc buffer (100 mM, pH 5.5); CpNanI (2.0 mU), MES buffer (100 mM, pH 5.0); CpNanH (0.5 mU), MES buffer (100 mM, pH 5.0); VcSialidase (1.5 mU), NaCl (150 mM), CaCl2) (10 mM), NaOAc buffer (100 mM, pH 5.5); PmST1 (34.4 μg), NaOAc buffer (100 mM, pH 5.5); BiNanH2, NaOAc buffer (100 mM, pH 5.0); hNEU2 (22.0 μg), MES buffer (100 mM, pH 5.0). The reactions were incubated for 30 min at 37° C., and were stopped by adding CAPS buffer (N-cyclohexyl-3-aminopropane sulfonic acid, 40 μL, 0.5 M, pH 10.5). The amount of the para-nitrophenolate formed was determined by measuring the A405 nm Of the reaction mixtures using a microplate reader.
The percentage inhibitions were determined using a concentration of 0.1 mM of each inhibitor, with reactions without inhibitors as controls. […] The values of IC50 were calculated by the software Grafit 5.0.

In another assay the target is CpNanH (Clostridium perfringens, UniProt P10481). Description: biochemical. The note with it: pH 5.0; read-out: Percentage inhibition (%) against CpNanH.
Sequence of CpNanH (P10481 whole entry, looked up): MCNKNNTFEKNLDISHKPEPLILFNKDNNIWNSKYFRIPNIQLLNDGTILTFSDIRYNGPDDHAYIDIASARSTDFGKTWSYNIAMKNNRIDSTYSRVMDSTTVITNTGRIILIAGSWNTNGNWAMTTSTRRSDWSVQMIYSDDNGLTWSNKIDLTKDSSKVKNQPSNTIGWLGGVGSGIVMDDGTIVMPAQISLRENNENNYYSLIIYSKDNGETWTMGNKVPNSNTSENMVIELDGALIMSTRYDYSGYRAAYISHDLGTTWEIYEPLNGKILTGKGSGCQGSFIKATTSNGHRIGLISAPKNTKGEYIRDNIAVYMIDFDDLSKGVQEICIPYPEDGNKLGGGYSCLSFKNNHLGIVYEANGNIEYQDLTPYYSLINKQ
For assay [10], the target named is T1, SpNanB. The experiment in a line: Sialidase inhibition assay (Example 4). The format is biochemical. Conditions: pH 6, read-out: Percentage inhibition (%) against SpNanB.
Assay [11] has as its target T4, BiNanH2. Description: Sialidase inhibition assay (Example 4). The format is biochemical. Conditions: pH 5, read-out: Percentage inhibition (%) against BiNanH2, 0.1 mM of each inhibitor, substrate Neu5Acα2-3GalβpNP 0.3 mM.
The test system of assay [12] is SpNanC. The note with it: previously reported recombinant SpNanC; cited from earlier work.
Setting [13] is: 1 mM of each inhibitor, substrate Neu5Acα2-3GalβpNP 0.3 mM, pH 5.5.

SMILES strings stand for the structures. Some results are limits rather than exact numbers.

T1 sequence (Q54727 30-697 S59P/E68D/N393D/K536E/K577E): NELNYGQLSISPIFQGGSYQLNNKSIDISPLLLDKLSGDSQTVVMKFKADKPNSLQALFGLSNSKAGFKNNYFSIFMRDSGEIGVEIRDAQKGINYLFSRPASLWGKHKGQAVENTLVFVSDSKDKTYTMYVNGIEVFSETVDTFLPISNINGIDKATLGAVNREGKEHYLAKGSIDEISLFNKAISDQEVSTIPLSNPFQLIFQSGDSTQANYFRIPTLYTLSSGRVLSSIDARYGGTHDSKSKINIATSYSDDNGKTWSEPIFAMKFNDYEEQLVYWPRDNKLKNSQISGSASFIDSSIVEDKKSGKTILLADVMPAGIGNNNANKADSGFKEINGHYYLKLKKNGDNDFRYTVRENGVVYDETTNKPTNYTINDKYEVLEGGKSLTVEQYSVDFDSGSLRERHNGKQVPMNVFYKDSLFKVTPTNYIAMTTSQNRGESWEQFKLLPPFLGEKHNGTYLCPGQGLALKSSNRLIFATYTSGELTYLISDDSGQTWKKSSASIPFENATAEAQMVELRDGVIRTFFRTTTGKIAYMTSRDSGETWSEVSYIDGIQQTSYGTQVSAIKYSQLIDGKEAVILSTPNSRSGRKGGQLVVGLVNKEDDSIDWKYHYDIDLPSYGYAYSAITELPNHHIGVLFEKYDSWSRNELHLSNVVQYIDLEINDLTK

In the case of `O=C(N[C@H]1[C@H]2O[C@@](C(=O)O)(C[C@@H]1O)O[C@@H]2[C@H](O)CO)C(F)(F)F` [2-2, 2,7-Anhydro-3,5-dideoxy-5-trifluoroacetamido-α-D-glycero-D-galacto-non-2-ulopyranosonic acid], the 50% inhibitory concentration (IC50) was 250 to 500 µM against SpNanB [1], 500 to 1000 µM against VcSialidase and 225 ± 34 µM at AuSialidase (read-out: IC50 against AuSialidase). In addition, the “Percentage inhibition (%) against SpNanB” value at SpNanB [1] is recorded as “weak inhibition”. For the same compound, the inhibition at 1000 µM on SpNanB [1] was determined as 68.2 ± 2.6%; on VcSialidase it was 62.1 ± 0.6%; at AuSialidase (setting [13]), 85.1 ± 0.3%; on SpNanC [2], 4.4 ± 2%; on BiNanH2 [3], 3.8 ± 2.6%; on hNEU2, 2.5 ± 2.1%. Also, the inhibition at 1000 µM on PmST1 [4] is 11 ± 2.7%; on SpNanA, 83.8 ± 0.3%. Further, the “Percentage inhibition (%) against VcSialidase” value at VcSialidase (setting [13]) is listed as “weak inhibition”. The “Percentage inhibition (%) against CpNanI” value in the assay with CpNanI was determined as 44.1 ± 1.0%. Further, the “Percentage inhibition (%) against AuSialidase” value at AuSialidase (setting [13]) is recorded as “moderate inhibitory activity”. For the same compound, at SpNanA, the “Percentage inhibition (%) against SpNanA” value is listed as “moderate inhibitory activity”.
In the case of `N[C@H]1[C@H]2O[C@@](C(=O)O)(C[C@@H]1O)O[C@@H]2[C@H](O)CO` [2-3, 5-Amino-2,7-anhydro-3,5-dideoxy-α-D-glycero-D-galacto-non-2-ulopyranosonic acid], the inhibition at 1000 µM on SpNanB [1] is 11.7 ± 2.6%; on VcSialidase, 1.3 ± 2%; at AuSialidase (setting [13]) it was 1.3 ± 2.2%; at SpNanC [2] it was 14.9 ± 3%; at BiNanH2 [3], 3.2 ± 3.2%; at hNEU2, 1.4 ± 2.4%. Besides, the inhibition at 1000 µM on PmST1 [4] is 13.8 ± 3.3%; at SpNanA, 19.3 ± 4.2%. For the same compound, the “Percentage inhibition (%) against CpNanI” value in the assay with CpNanI is listed as 10.1 ± 5.7%.
Take `O=C(O)[C@@]12C[C@@H](O)[C@@H](NC3CCCCC3)C(O1)[C@@H]([C@H](O)CO)O2` [2-4]: the IC50 is 180 ± 23 µM on SpNanB [1], more than 1000 µM at VcSialidase and 500 to 1000 µM against SpNanA. The “Percentage inhibition (%) against SpNanB” value on SpNanB [1] is given as “effective inhibitory activity”. The inhibition at 1000 µM on SpNanB [1] was 86.6 ± 0.3%; on VcSialidase it was 1.2 ± 0.7%; on AuSialidase (setting [13]), 16.8 ± 2.4%; on SpNanC [2], 94.2 ± 0.1%; at BiNanH2 [3], 1.2 ± 0.9%; at hNEU2, 3.6 ± 0.1%. The inhibition at 1000 µM on PmST1 [4] is 12.3 ± 1.9%; on SpNanA, 61.2 ± 0.6%. Further, the “Percentage inhibition (%) against CpNanI” value with CpNanI stood at 13.6 ± 0.1%. Also, the “Percentage inhibition (%) against SpNanC” value at SpNanC [2] (1 mM of each inhibitor, substrate Neu5Acα2-3GalβpNP 0.3 mM, pH 6.5) was “showed inhibition”. For the same compound, the “Percentage inhibition (%) against SpNanA” value on SpNanA is given as “weak inhibition”.
Turning to `CC(=O)N[C@H]1[C@H]([C@H](O)[C@H](O)CO)OC(O[C@H]2[C@@H](O)[C@@H](CO)O[C@@H](Oc3ccc([N+](=O)[O-])cc3)[C@@H]2O)(C(=O)O)C[C@@H]1O` (some centres unmarked) [Neu5Acα2-3GalβpNP], the “Percentage conversion (%) by SpNanC” value with SpNanC [5] was 85.1 ± 2.4%. In addition, at SpNanC [6], the Km is 2700 ± 500 µM and the kcat was 406.8 ± 39.0 s⁻¹. The “Recognition by SpNanB (substrate specificity)” value on SpNanB [7] is on record as “+ (+ represents >80% conversion)”.
As for `CC(=O)N[C@H]1[C@H]([C@H](O)[C@H](O)CO)OC(C(=O)O)=C[C@@H]1O` [compound 6, 5-Acetamido-2,6-anhydro-3,5-dideoxy-D-glycero-D-galacto-non-2-enonic acid, reference compound], the inhibition at 1000 µM at SpNanB [1] worked out at 26.1 ± 1%; at VcSialidase it was 98.8 ± 0.1%; at AuSialidase (setting [13]), 99.6 ± 0.6%; on SpNanC [2] it was 9 ± 3.5%; on BiNanH2 [3] it was 95.3 ± 0.2%; at PmST1 [4], 15.8 ± 0.1%. Besides, at SpNanA, the inhibition at 1000 µM was 98.9 ± 1.8%. In addition, the inhibition at 100 µM is 11% at SpNanC [8]; 2% on PmST1 [9]; 2% on CpNanH; 4% at SpNanB [10]; more than 50% on BiNanH2 [11]. Besides, the “Percentage inhibition (%) against CpNanI” value in the assay with CpNanI was determined as 93.3 ± 3.8%.
With `CC(=O)N[C@H]1[C@H]([C@H](O)[C@H](O)CO)O[C@@](O[C@H]2[C@@H](O)[C@@H](CO)O[C@@H](O[C@H]3[C@H](O)[C@@H](O)C(O)O[C@@H]3CO)[C@@H]2O)(C(=O)O)C[C@@H]1O` (stereo partly drawn) [α2-3-sialyllactose], in the assay on SpNanC [12], the Michaelis constant (Km) is 1080 ± 350 µM and the kcat was 0.313 ± 0.052 s⁻¹.

The values are drawn from patent US11325936B2, “Sialidase inhibitors and preparation thereof” (The Regents of the University of California, priority 2017, dated 2022).
